# In patent US9586907B2, “Isothiocyanate compounds, pharmaceutical compositions, and uses thereof” (priority 2006, dated 2017):
# Read-outs that look alike come from different tables or passages of the source.
# How the values were obtained:
# [1] = test system: Enterococcus sp., BK11940; assay: MIC, Enterococcus sp., BK11940; details: Enterococcus, 24 h
# M. fortuitum = assay: MIC, M. fortuitum; format: cell-based; details: Mycolicibacterium fortuitum
# [2] = test system: Staphylococcus epidermidis BK12798; assay: MIC, Staphylococcus epidermidis BK12798; details: Staphylococcus epidermidis, BK12798, 24 h
# Candida albicans 90030 = assay: Anti-fungal MIC, Candida albicans 90030; details: Candida albicans, 90030, read-out: Anti-Fungal Activity (MIC)
# M. tuberculosis P = assay: MIC, M. tuberculosis P; format: cell-based; details: Mycobacterium tuberculosis, read-out: MIC
# Experimental: (§1) Next, several of the bifunctional ITC compounds were tested for their ability to inhibit the growth of some clinical isolates of Mycobacteria, the results of which are summarized in Table 3 below.
# Shigella sp., BK 12440 = assay: MIC, Shigella sp., BK 12440; format: cell-based; details: Gram −, 24 hours of incubation, read-out: MIC
# [3] = test system: Aspergillus fumigatus Rit 1; assay: Anti-fungal MIC, Aspergillus fumigatus Rit 1; details: Aspergillus fumigatus, RIT1, read-out: Anti-Fungal Activity (MIC)
# [4] = test system: Serattia marcescens BK12421; assay: MIC, Serattia marcescens BK12421; details: 24 h
# [5] = test system: Klebsiella pneumonii BK12261; assay: MIC, Klebsiella pneumonii BK12261; details: Klebsiella, BK12261, 24 h
# [6] = test system: Pseudomonas aeruginosa BK12348; assay: MIC, Pseudomonas aeruginosa BK12348; details: Pseudomonas aeruginosa, BK12348, 24 h
# [7] = test system: Streptococcus sp., BK12233; assay: MIC, Streptococcus sp., BK12233; details: Streptococcus, 24 h
# [8] = test system: MRSA (Staphylococcus aureus) BK12060; assay: MIC, MRSA BK12060; details: Staphylococcus aureus, MRSA, 24 h
# [9] = test system: Serattia marcescens BK12426; assay: MIC, Serattia marcescens BK12426; details: 24 h
# Candida crusei 6258^mdr = assay: microbe, parasite or virus in culture; details: read-out: Anti-Fungal Activity (MIC)
# [10] = test system: Acinetobacter sp., BK12787; assay: MIC, Acinetobacter sp., BK12787; details: Acinetobacter, 24 h
# [11] = test system: Staphylococcus epidermidis BK12799; assay: MIC, Staphylococcus epidermidis BK12799; details: Staphylococcus epidermidis, BK12799, 24 h
# M. cansassi = assay: MIC, M. cansassi; format: cell-based
# Candida dlabrata 250^mdr = assay: Anti-fungal MIC, Candida dlabrata 250^mdr; details: Candida, read-out: Anti-Fungal Activity (MIC)
# Escherichia coli K12 = assay: MIC, Escherichia coli K12; details: Escherichia coli, K12, 24 h
# [12] = test system: Cryptococcus neoformans CNH99; assay: Anti-fungal MIC, Cryptococcus neoformans CNH99; details: Cryptococcus neoformans, CNH99, read-out: Anti-Fungal Activity (MIC)
# [13] = test system: Streptococcus sp., BK12235; assay: MIC, Streptococcus sp., BK12235; details: Streptococcus, 24 h
# [14] = test system: MRSA (Staphylococcus aureus) BK12064; assay: MIC, MRSA BK12064; details: Staphylococcus aureus, MRSA, 24 h
# Escherichia coli BK12336 = assay: MIC, Escherichia coli BK12336; details: Escherichia coli, BK12336, 24 h
# [15] = test system: Pseudomonas aeruginosa BK12347; assay: MIC, Pseudomonas aeruginosa BK12347; details: Pseudomonas aeruginosa, BK12347, 24 h
# M. intracellularie = assay: MIC, M. intracellularie; format: cell-based
# [16] = test system: Acinetobacter sp., BK12786; assay: MIC, Acinetobacter sp., BK12786; details: Acinetobacter, 24 h
# [17] = test system: Klebsiella pneumonii BK12260; assay: MIC, Klebsiella pneumonii BK12260; details: Klebsiella, BK12260, 24 h
# M. tuberculosis W = assay: MIC, M. tuberculosis W; format: cell-based; details: Mycobacterium tuberculosis, read-out: MIC
# Experimental: as §1
# Bacillus cereus 4342 = assay: MIC, Bacillus cereus 4342; details: Bacillus cereus, 4342, 24 h
# [18] = test system: Enterococcus sp., BK11936; assay: MIC, Enterococcus sp., BK11936; details: Enterococcus, 24 h
# [19] = test system: Bacillus subtilis BK11590; assay: MIC, Bacillus subtilis BK11590; format: cell-based; details: Gram +, 24 hours of incubation, read-out: MIC
# Candida albicans 90028 = assay: Anti-fungal MIC, Candida albicans 90028; details: Candida albicans, 90028, read-out: Anti-Fungal Activity (MIC)
# [20] = test system: Candida albicans 5108^mdr; assay: Anti-fungal MIC, Candida albicans 5108^mdr; details: Candida albicans, read-out: Anti-Fungal Activity (MIC)
# [21] = test system: Aspergillus fumigatus Rit 11; assay: Anti-fungal MIC, Aspergillus fumigatus Rit 11; details: Aspergillus fumigatus, RIT11, read-out: Anti-Fungal Activity (MIC)
# M. avium = assay: MIC, M. avium; format: cell-based; details: Mycobacterium avium
# M. scrofulaceum = assay: MIC, M. scrofulaceum; format: cell-based; details: Mycobacterium scrofulaceum
# [22] = test system: Enterobacter cloacii BK12315; assay: MIC, Enterobacter cloacii BK12315; details: Enterobacter, BK12315, 24 h
# [23] = test system: Candida parapsilosis 22019; assay: Anti-fungal MIC, Candida parapsilosis 22019; details: 22019, read-out: Anti-Fungal Activity (MIC)
# Shigella sp., BK 12441 = assay: MIC, Shigella sp., BK 12441; format: cell-based; details: Gram −, 24 hours of incubation, read-out: MIC
# M. tuberculosis CDC1551 = assay: MIC, M. tuberculosis CDC1551; format: cell-based; details: Mycobacterium tuberculosis, read-out: MIC
# Experimental: as §1
# [24] = test system: Aspergillus fumigatus Rit 21; assay: Anti-fungal MIC, Aspergillus fumigatus Rit 21; details: Aspergillus fumigatus, RIT21, read-out: Anti-Fungal Activity (MIC)
# [25] = test system: Enterobacter cloacii BK12313; assay: MIC, Enterobacter cloacii BK12313; details: Enterobacter, BK12313, 24 h
# M. tuberculosis H37Rv = assay: MIC, M. tuberculosis H37Rv; format: cell-based; details: Mycobacterium tuberculosis, read-out: MIC
# Experimental: as §1
# [26] = Compound stability, independent experiments; format: physicochemical
# [27] = test system: clinical isolates of bacteria and fungus (including yeasts); assay: General antimicrobial activity, semi-quantitative score on collection of clinical isolates; format: cell-based; for General antimicrobial activity: key: −: indicating no activity; +++++: indicating highest activity
# Experimental: The growth inhibitory effect of a number of various ITC compounds were tested on large collection of clinical isolates of bacteria and fungus (including yeasts), in order to establish a systematic structure-activity relationship for the ITC compounds. […] To assess the average activity for an individual ITC compound, the semi-quantitative score was calculated for each compound based on the number of sensitive bacterial strains at concentrations of 100 and 200 μM.
# [28] = test system: methicillin-resistant Staphylococcus aureus (MRSA); assay: Activity against MRSA (data not shown); format: cell-based
# Bacillus cereus = assay: Activity of ITC compounds against Bacillus cereus; format: cell-based
# [29] = test system: Staphylococcus epidermidis; assay: Activity against Staphylococcus epidermidis (data not shown); format: cell-based
# [30] = In vivo tolerance in mice; details: highest dose, 50 mg/kg
# virus (92TH594) = assay: Viral proliferation in PBMC, p24 viral antigen; format: cell-based; details: PBMC
smiles,measurement,setting,value
"COc1ccc(CN=C=S)cc1 [Compound 2, reference compound]",MIC,[1],64 µg/mL
same,MIC,"M. fortuitum; M. fortuitum, read-out: MIC",32 µg/mL
same,MIC,[2],32 µg/mL
same,MIC,Candida albicans 90030,4 µg/mL
same,MIC,M. tuberculosis P,8 µg/mL
same,MIC,"Shigella sp., BK 12440",64 µg/mL
same,MIC,[3],8 µg/mL
same,MIC,[4],> 64 µg/mL
same,MIC,[5],> 64 µg/mL
same,MIC,[6],> 64 µg/mL
same,MIC,[7],4 µg/mL
same,MIC,[8],32 to 64 µg/mL
same,MIC,[9],> 64 µg/mL
same,MIC,Candida crusei 6258^mdr,2 µg/mL
same,MIC,[10],> 64 µg/mL
same,MIC,[11],32 µg/mL
same,MIC,"M. cansassi; M. cansassi, read-out: MIC",32 µg/mL
same,MIC,Candida dlabrata 250^mdr; 48 h,1 µg/mL
same,MIC,Escherichia coli K12,64 µg/mL
same,MIC,[12],< 1 µg/mL
same,MIC,[13],8 µg/mL
same,MIC,[14],64 µg/mL
same,MIC,Escherichia coli BK12336,> 64 µg/mL
same,MIC,[15],> 64 µg/mL
same,MIC,"M. intracellularie; M. intracellularie, read-out: MIC",32 µg/mL
same,MIC,[16],> 64 µg/mL
same,MIC,[17],> 64 µg/mL
same,MIC,M. tuberculosis W,8 µg/mL
same,MIC,Bacillus cereus 4342,32 µg/mL
same,MIC,[18],64 µg/mL
same,MIC,[19],32 to 64 µg/mL
same,MIC,Candida albicans 90028,4 µg/mL
same,MIC,[20],2 µg/mL
same,MIC,[21],8 µg/mL
same,MIC,"M. avium; M. avium, read-out: MIC",32 µg/mL
same,MIC,"M. scrofulaceum; M. scrofulaceum, read-out: MIC",32 µg/mL
same,MIC,[22],> 64 µg/mL
same,MIC,[23],4 µg/mL
same,MIC,"Shigella sp., BK 12441",32 to 64 µg/mL
same,MIC,M. tuberculosis CDC1551,32 µg/mL
same,MIC,[24],8 µg/mL
same,MIC,[25],> 64 µg/mL
same,MIC,M. tuberculosis H37Rv,32 µg/mL
S=C=NCc1ccncc1 [Compound 29],stability of the compound,[26],instability of the compound
same,General antimicrobial activity,"[27]; semi-quantitative score from number of sensitive bacterial strains at 100 and 200 μM, deduced from number of sensitive bacterial species and average MIC",−
S=C=NCc1ccc2ccc3cccc4ccc1c2c34 [Compound 33],MIC,Candida albicans 90030,8 µg/mL
same,MIC,[3],> 64 µg/mL
same,antimicrobial / growth-inhibitory activity (in words),[27]; Table 1 screen,poor growth-inhibitory activity
same,MIC,Candida crusei 6258^mdr,> 64 µg/mL
same,MIC,Candida dlabrata 250^mdr,64 µg/mL
same,MIC,[12],4 µg/mL
same,activity against MRSA (in words),[28],very efficient
same,MIC,Candida albicans 90028,32 µg/mL
same,MIC,[20],> 64 µg/mL
same,MIC,[21],> 64 µg/mL
same,MIC,[23],32 µg/mL
same,activity against Bacillus cereus (in words),Bacillus cereus,very efficient
same,MIC,[24],> 64 µg/mL
same,activity against Staphylococcus epidermidis (in words),[29],very efficient
S=C=NCc1cccnc1 [Compound 30],MIC,M. fortuitum,16 µg/mL
same,MIC,Candida albicans 90030,1 µg/mL
same,MIC,M. tuberculosis P,4 µg/mL
same,MIC,[3],4 µg/mL
same,MIC,Candida crusei 6258^mdr,0.5 µg/mL
same,MIC,M. cansassi,32 µg/mL
same,toxicity in treated mice,[30],no toxicity was observed
same,MIC,Candida dlabrata 250^mdr; 48 h,2 µg/mL
same,MIC,[12],1 µg/mL
same,MIC,M. intracellularie,32 µg/mL
same,MIC,M. tuberculosis W,4 µg/mL
same,MIC,Candida albicans 90028,2 µg/mL
same,MIC,[20],0.5 µg/mL
same,MIC,[21],4 µg/mL
same,MIC,M. avium,32 µg/mL
same,MIC,M. scrofulaceum,32 µg/mL
same,P24 values,"virus (92TH594); compound 2.5 μg/ml, added to the cells after viral infection",643 pg/mL
same,P24 values,"virus (92TH594); compound 2.5 μg/ml, added to the cells before viral infection",320 pg/mL
same,P24 values,"virus (92TH594); compound 10 μg/ml, added to the cells after viral infection",155 pg/mL
same,P24 values,"virus (92TH594); compound 10 μg/ml, added to the cells before viral infection",0 pg/mL
same,MIC,[23],1 µg/mL
same,activity against Bacillus cereus (in words),Bacillus cereus,only moderately active
same,MIC,M. tuberculosis CDC1551,16 µg/mL
same,MIC,[24],4 µg/mL
same,MIC,M. tuberculosis H37Rv,32 µg/mL
